Source: patent publication US9944602B2, “Piperidinone herbicides” (E. I. DU PONT DE NEMOURS AND COMPANY, priority 2014, dated 2018)

Key:
Type in all cases: in vivo
[1] = test system: morningglory (Ipomoea coccinea); assay: Test C postemergence morningglory; conditions: Table C, scale 0 to 100
From the text: (§1) Seeds of plant species selected from blackgrass (Alopecurus myosuroides), ryegrass, Italian (Italian ryegrass, Lolium multiflorum), wheat (winter wheat, Triticum aestivum), galium (catchweed bedstraw, Galium aparine), corn (Zea mays), crabgrass, large (large crabgrass, Digitaria sanguinalis), foxtail, giant (giant foxtail, Setaria faberii), johnsongrass (Sorghum halepense), lambsquarters (Chenopodium album), morningglory (Ipomoea coccinea), yellow (yellow nutsedge, Cyperus esculentus), pigweed (Amaranthus retroflexus), ragweed (common ragweed, Ambrosia elatior), soybean (Glycine max), barnyardgrass (Echinochloa crus-galli), oilseed rape (Brassica napus), waterhemp (common waterhemp, Amaranthus rudis), and velvetleaf (Abutilon theophrasti) were planted into a blend of loam soil and sand and treated preemergence with test chemicals formulated in a non-phytotoxic solvent mixture which included a surfactant. At the same time, plants selected from these crop and weed species and also chickweed (common chickweed, Stellaria media), kochia (Kochia scoparia), and oat, wild (wild oat, Avena fatua) were planted in pots containing Sunshine Redi-Earth® planting medium comprising spaghnum peat moss, vermiculite, starter nutrients and dolomitic limestone and treated with postemergence applications of test chemicals formulated in the same manner. Plants ranged in height from 2 to 18 cm (1- to 4-leaf stage) for postemergence treatments. Treated plants and controls were maintained in a greenhouse for 13 to 15 days, after which time all species were compared to controls and visually evaluated. Plant response ratings, summarized in Table C, are based on a scale of 0 to 100 where 0 is no effect and 100 is complete control. A dash (-) response means no test result.

[2] = test system: ryegrass, Italian (Italian ryegrass, Lolium multiflorum); assay: Test C postemergence ryegrass, Italian; conditions: Table C, scale 0 to 100
From the text: as §1

[3] = test system: kochia (Kochia scoparia); assay: Test C postemergence kochia; conditions: Table C, scale 0 to 100
From the text: as §1

[4] = test system: waterhemp (common waterhemp, Amaranthus rudis); assay: Test C postemergence waterhemp; conditions: Table C, scale 0 to 100
From the text: as §1

[5] = test system: johnsongrass (Sorghum halepense); assay: Test C postemergence johnsongrass; conditions: Table C, scale 0 to 100
From the text: as §1

[6] = test system: foxtail, giant (giant foxtail, Setaria faberii); assay: Test C postemergence foxtail, giant; conditions: Table C, scale 0 to 100
From the text: as §1

[7] = test system: blackgrass (Alopecurus myosuroides); assay: Test C postemergence blackgrass; conditions: Table C, scale 0 to 100
From the text: as §1

[8] = test system: wheat (winter wheat, Triticum aestivum); assay: Test C postemergence wheat; conditions: Table C, scale 0 to 100
From the text: as §1

[9] = test system: ryegrass, Italian (Italian ryegrass, Lolium multiflorum); assay: Test C preemergence ryegrass, Italian; conditions: Table C, scale 0 to 100
From the text: as §1

[10] = test system: crabgrass, large (large crabgrass, Digitaria sanguinalis); assay: Test C preemergence crabgrass, large; conditions: Table C, scale 0 to 100
From the text: as §1

[11] = test system: waterhemp (common waterhemp, Amaranthus rudis); assay: Test C preemergence waterhemp; conditions: Table C, scale 0 to 100
From the text: as §1

[12] = test system: soybean (Glycine max); assay: Test C preemergence soybean; conditions: Table C, scale 0 to 100
From the text: as §1

[13] = test system: corn (Zea mays); assay: Test C preemergence corn; conditions: Table C, scale 0 to 100
From the text: as §1

[14] = test system: galium (catchweed bedstraw, Galium aparine); assay: Test C preemergence galium; conditions: Table C, scale 0 to 100
From the text: as §1

[15] = test system: yellow (yellow nutsedge, Cyperus esculentus); assay: Test C preemergence yellow nutsedge; conditions: Table C, scale 0 to 100
From the text: as §1

[16] = test system: crabgrass, large (large crabgrass, Digitaria sanguinalis); assay: Test A postemergence crabgrass, large; conditions: 0 to 100 scale, 0 is no effect, 100 is complete control
From the text: (§2) Seeds of plant species selected from barnyardgrass (Echinochloa crus-galli), kochia (Kochia scoparia), ragweed (common ragweed, Ambrosia elatior), ryegrass, Italian (Italian ryegrass, Lolium multiflorum), crabgrass, large (large crabgrass, Digitaria sanguinalis), foxtail, giant (giant foxtail, Setaria faberii), morningglory (Ipomoea spp.), pigweed (Amaranthus retroflexus), velvetleaf (Abutilon theophrasti), wheat (Triticum aestivum), and corn (Zea mays) were planted into a blend of loam soil and sand and treated preemergence with a directed soil spray using test chemicals formulated in a non-phytotoxic solvent mixture which included a surfactant.
(§3) At the same time, plants selected from these crop and weed species and also blackgrass (Alopecurus myosuroides), and galium (catchweed bedstraw, Galium aparine) were planted in pots containing the same blend of loam soil and sand and treated with postemergence applications of test chemicals formulated in the same manner. Plants ranged in height from 2 to 10 cm and were in the one- to two-leaf stage for the postemergence treatment. Treated plants and untreated controls were maintained in a greenhouse for approximately 10 d, after which time all treated plants were compared to untreated controls and visually evaluated for injury. Plant response ratings, summarized in Table A, are based on a 0 to 100 scale where 0 is no effect and 100 is complete control. A dash (-) response means no test result.

[17] = test system: velvetleaf (Abutilon theophrasti); assay: Test A postemergence velvetleaf; conditions: 0 to 100 scale, 0 is no effect, 100 is complete control
From the text: as §2, §3

[18] = test system: crabgrass, large (large crabgrass, Digitaria sanguinalis); assay: Test A preemergence crabgrass, large; conditions: 0 to 100 scale; for Crabgrass, Large plant response rating: 125 g ai/ha, 0 no effect, 100 complete control; for Plant response rating, Crabgrass, Large: 500 g ai/ha, 0 is no effect, 100 is complete control
From the text: as §2, §3

[19] = test system: morningglory (Ipomoea spp.); assay: Test A postemergence morningglory; conditions: 0 to 100 scale, 0 is no effect, 100 is complete control
From the text: as §2, §3

O=C1NCCC(c2cccc(C(F)(F)F)c2)C1C(=O)Nc1ccccc1Cl (racemic) [Compound 17]
Plant response rating ([1]; 31 g ai/ha): 0 | Plant response rating ([1]; 62 g ai/ha): 0 | Plant response rating ([1]; 125 g ai/ha): 0 | Plant response rating ([1]; 250 g ai/ha): 5 | Plant response rating ([2]; 31 g ai/ha): 0 | Plant response rating ([2]; 62 g ai/ha): 0 | Plant response rating ([2]; 125 g ai/ha): 0 | Plant response rating ([2]; 250 g ai/ha): 0 | Plant response rating ([3]; 31 g ai/ha): 0 | Plant response rating ([3]; 62 g ai/ha): 0 | Plant response rating ([3]; 125 g ai/ha): 0 | Plant response rating ([3]; 250 g ai/ha): 0 | Plant response rating ([4]; 31 g ai/ha): 0 | Plant response rating ([4]; 62 g ai/ha): 0 | Plant response rating ([4]; 125 g ai/ha): 0 | Plant response rating ([4]; 250 g ai/ha): 0 | Plant response rating ([5]; 31 g ai/ha): 0 | Plant response rating ([5]; 62 g ai/ha): 0 | Plant response rating ([5]; 125 g ai/ha): 0 | Plant response rating ([5]; 250 g ai/ha): 0 | Plant response rating ([6]; 31 g ai/ha): 0 | Plant response rating ([6]; 62 g ai/ha): 5 | Plant response rating ([6]; 125 g ai/ha): 5 | Plant response rating ([6]; 250 g ai/ha): 5 | Plant response rating ([7]; 31 g ai/ha): 0 | Plant response rating ([7]; 62 g ai/ha): 0 | Plant response rating ([7]; 125 g ai/ha): 0 | Plant response rating ([7]; 250 g ai/ha): 0 | Plant response rating ([8]; 31 g ai/ha): 0 | Plant response rating ([8]; 62 g ai/ha): 0 | Plant response rating ([8]; 125 g ai/ha): 0 | Plant response rating ([8]; 250 g ai/ha): 0

O=C1NCCC(c2cccc(C(F)(F)F)c2)C1C(=O)Nc1ccc(F)c(F)c1F (racemic) [Compound 28]
Plant response rating ([9]; 31 g ai/ha): 0 | Plant response rating ([9]; 62 g ai/ha): 0 | Plant response rating ([9]; 125 g ai/ha): 0 | Plant response rating ([9]; 250 g ai/ha): 35 | Plant response rating ([10]; 31 g ai/ha): 80 | Plant response rating ([10]; 62 g ai/ha): 85 | Plant response rating ([10]; 125 g ai/ha): 90 | Plant response rating ([10]; 250 g ai/ha): 90 | Plant response rating ([11]; 31 g ai/ha): 0 | Plant response rating ([11]; 125 g ai/ha): 0 | Plant response rating ([11]; 250 g ai/ha): 60 | Plant response rating ([12]; 31 g ai/ha): 0 | Plant response rating ([12]; 62 g ai/ha): 0 | Plant response rating ([12]; 125 g ai/ha): 0 | Plant response rating ([12]; 250 g ai/ha): 0 | Plant response rating ([13]; 31 g ai/ha): 0 | Plant response rating ([13]; 62 g ai/ha): 0 | Plant response rating ([13]; 125 g ai/ha): 30 | Plant response rating ([13]; 250 g ai/ha): 55 | Plant response rating ([14]; 31 g ai/ha): 0 | Plant response rating ([15]; 31 g ai/ha): 0 | Plant response rating ([15]; 62 g ai/ha): 0 | Plant response rating ([15]; 125 g ai/ha): 10 | Plant response rating ([15]; 250 g ai/ha): 50

O=C1NCCC(c2cccc(C(F)(F)F)c2)C1C(=O)Nc1cccc(F)c1F (stereo not drawn) [Compound 9, N-(2,3-difluorophenyl)-2-oxo-4-[3-(trifluoromethyl)phenyl]-3-piperidinecarboxamide]
Plant response rating ([1]; 31 g ai/ha): 0 | Plant response rating ([1]; 62 g ai/ha): 0 | Plant response rating ([1]; 125 g ai/ha): 30 | Plant response rating ([1]; 250 g ai/ha): 40 | Plant response rating ([9]; 31 g ai/ha): 30 | Plant response rating ([9]; 62 g ai/ha): 50 | Plant response rating ([9]; 125 g ai/ha): 30 | Plant response rating ([9]; 250 g ai/ha): 80 | Plant response rating, Crabgrass, Large ([16]; 125 g ai/ha): 80 | Plant response rating, Crabgrass, Large ([16]; 500 g ai/ha): 90 | Plant response rating ([2]; 31 g ai/ha): 0 | Plant response rating ([2]; 62 g ai/ha): 0 | Plant response rating ([2]; 125 g ai/ha): 0 | Plant response rating ([2]; 250 g ai/ha): 0 | Plant response rating ([3]; 31 g ai/ha): 0 | Plant response rating ([3]; 62 g ai/ha): 0 | Plant response rating ([3]; 125 g ai/ha): 0 | Plant response rating ([3]; 250 g ai/ha): 0 | Plant response rating ([10]; 31 g ai/ha): 95 | Plant response rating ([10]; 62 g ai/ha): 95 | Plant response rating ([10]; 125 g ai/ha): 98 | Plant response rating ([10]; 250 g ai/ha): 98 | Plant response rating ([4]; 31 g ai/ha): 0 | Plant response rating ([4]; 62 g ai/ha): 5 | Plant response rating ([4]; 125 g ai/ha): 0 | Plant response rating ([4]; 250 g ai/ha): 5 | Plant response rating ([5]; 31 g ai/ha): 0 | Plant response rating ([5]; 62 g ai/ha): 0 | Plant response rating ([5]; 125 g ai/ha): 0 | Plant response rating ([5]; 250 g ai/ha): 5 | Plant response rating ([11]; 31 g ai/ha): 15 | Plant response rating ([11]; 62 g ai/ha): 0 | Plant response rating ([11]; 125 g ai/ha): 20 | Plant response rating ([11]; 250 g ai/ha): 0 | Plant response rating, Velvetleaf ([17]; 125 g ai/ha): 0 | Plant response rating, Velvetleaf ([17]; 500 g ai/ha): 0 | Plant response rating ([6]; 31 g ai/ha): 0 | Plant response rating ([6]; 62 g ai/ha): 5 | Plant response rating ([6]; 125 g ai/ha): 35 | Plant response rating ([6]; 250 g ai/ha): 85 | Plant response rating ([7]; 31 g ai/ha): 0 | Plant response rating ([7]; 62 g ai/ha): 0 | Plant response rating ([7]; 125 g ai/ha): 0 | Plant response rating ([7]; 250 g ai/ha): 0 | Plant response rating ([12]; 31 g ai/ha): 0 | Plant response rating ([12]; 62 g ai/ha): 0 | Plant response rating ([12]; 125 g ai/ha): 0 | Plant response rating ([12]; 250 g ai/ha): 0 | Crabgrass, Large plant response rating [18]: 90 | Plant response rating, Crabgrass, Large [18]: 100 | Plant response rating, Morningglory ([19]; 125 g ai/ha): 0 | Plant response rating, Morningglory ([19]; 500 g ai/ha): 40 | Plant response rating ([13]; 31 g ai/ha): 0 | Plant response rating ([13]; 62 g ai/ha): 0 | Plant response rating ([13]; 125 g ai/ha): 75 | Plant response rating ([13]; 250 g ai/ha): 90 | Plant response rating ([14]; 31 g ai/ha): 0 | Plant response rating ([14]; 62 g ai/ha): 0 | Plant response rating ([14]; 125 g ai/ha): 0 | Plant response rating ([14]; 250 g ai/ha): 75 | Plant response rating ([15]; 31 g ai/ha): 0 | Plant response rating ([15]; 62 g ai/ha): 0 | Plant response rating ([15]; 125 g ai/ha): 0 | Plant response rating ([15]; 250 g ai/ha): 0 | Plant response rating ([8]; 31 g ai/ha): 0 | Plant response rating ([8]; 62 g ai/ha): 0 | Plant response rating ([8]; 125 g ai/ha): 0 | Plant response rating ([8]; 250 g ai/ha): 0

O=C1NCCC(c2cccc(C(F)(F)F)c2)C1C(=O)Nc1ccccc1C(F)(F)F (stereo not drawn) [Compound 10, 2-oxo-N-[2-(trifluoromethyl)phenyl)-4-[3-(trifluoromethyl)phenyl]-3-piperidinecarboxamide]
Plant response rating, Crabgrass, Large ([16]; 125 g ai/ha): 60 | Plant response rating, Crabgrass, Large ([16]; 500 g ai/ha): 80 | Plant response rating, Velvetleaf ([17]; 125 g ai/ha): 0 | Plant response rating, Velvetleaf ([17]; 500 g ai/ha): 0 | Crabgrass, Large plant response rating [18]: 90 | Plant response rating, Crabgrass, Large [18]: 100 | Plant response rating, Morningglory ([19]; 125 g ai/ha): 0 | Plant response rating, Morningglory ([19]; 500 g ai/ha): 0
